Measured values: ChEMBL document CHEMBL3045862, “PRE-CLINICAL AND CLINICAL PHARMACOKINETICS OF THE DIASTEREOMERS OF ARTEETHER, A POTENT ANTIMALARIAL” (Med Chem Res, 2004)

Key:
Assay type in all cases: ADME, organism-based
[1] = Clearance in Homo sapiens (human) at 150 mg; details: in vivo
[2] = Volume of distribution in Homo sapiens (human) at 150 mg; details: in vivo
[3] = Mean residence time in Homo sapiens (human) at 150 mg; details: in vivo
[4] = Elimination half life in Homo sapiens (human) at 150 mg; details: in vivo, read-out: beta t1/2 (converted)
[5] = AUC (0 to infinity) in Homo sapiens (human) at 150 mg; set-up: dose 150 mg, time infinity; details: plasma
[6] = Tmax in Homo sapiens (human) at 150 mg; details: in vivo
[7] = Cmax in Homo sapiens (human) at 150 mg; set-up: dose 150 mg; details: in vivo
[8] = Volume of distribution in Macaca mulatta (Rhesus monkey) at 4 mg/kg, iv; set-up: dose 4 mg/kg, route intravenous; details: in vivo
[9] = Mean residence time in Macaca mulatta (Rhesus monkey) at 4 mg/kg, iv; set-up: dose 4 mg/kg, route intravenous; details: in vivo
Rhesus monkey [10] = assay: Dose normalized AUC in Macaca mulatta (Rhesus monkey) at 4 mg/kg, iv; set-up: dose 4 mg/kg, route intravenous; details: in vivo
[11] = Elimination half life in Macaca mulatta (Rhesus monkey) at 4 mg/kg, iv; set-up: dose 4 mg/kg, route intravenous; details: in vivo, read-out: beta t1/2 (converted)
Rhesus monkey [12] = assay: Volume of distribution in Macaca mulatta (Rhesus monkey) at 7.5 mg/kg, administered intramuscularly; set-up: dose 7.5 mg/kg, route intramuscular; details: in vivo, im
[13] = Mean residence time in Macaca mulatta (Rhesus monkey) at 7.5 mg/kg, administered intramuscularly; set-up: dose 7.5 mg/kg, route intramuscular; details: in vivo, im
[14] = Elimination half life in Macaca mulatta (Rhesus monkey) at 7.5 mg/kg, administered intramuscularly; set-up: dose 7.5 mg/kg, route intramuscular; details: in vivo, im, read-out: beta t1/2 (converted)
Rhesus monkey [15] = assay: Dose normalized AUC in Macaca mulatta (Rhesus monkey) at 7.5 mg/kg, administered intramuscularly; set-up: dose 7.5 mg/kg, route intramuscular; details: in vivo, im
[16] = Tmax in Macaca mulatta (Rhesus monkey) at 7.5 mg/kg, administered intramuscularly; set-up: dose 7.5 mg/kg, route intramuscular; details: in vivo, im
[17] = Cmax in Macaca mulatta (Rhesus monkey) at 7.5 mg/kg, administered intramuscularly; set-up: dose 7.5 mg/kg, route intramuscular; details: in vivo, im
[18] = Mean residence time in Macaca mulatta (Rhesus monkey) at 50 mg/kg, po; set-up: dose 50 mg/kg, route oral; details: in vivo
[19] = Elimination half life in Macaca mulatta (Rhesus monkey) at 50 mg/kg, po; set-up: dose 50 mg/kg, route oral; details: in vivo, read-out: beta t1/2 (converted)
[20] = Elimination half life in Rattus norvegicus Sprague-Dawley (rat) at 30 mg/kg, administered intramuscularly; set-up: dose 30 mg/kg, route intramuscular; details: in vivo, im, read-out: beta t1/2 (converted)
Rattus norvegicus [21] = assay: Dose normalized AUC in Rattus norvegicus Sprague-Dawley (rat) at 30 mg/kg, administered intramuscularly; set-up: dose 30 mg/kg, route intramuscular; details: in vivo, im
[22] = Tmax in Rattus norvegicus Sprague-Dawley (rat) at 30 mg/kg, administered intramuscularly; set-up: dose 30 mg/kg, route intramuscular; details: in vivo, im
[23] = Cmax in Rattus norvegicus Sprague-Dawley (rat) at 30 mg/kg, administered intramuscularly; set-up: dose 30 mg/kg, route intramuscular; details: in vivo, im
Rattus norvegicus [24] = assay: Volume of distribution in Rattus norvegicus Sprague-Dawley (rat) at 17.5 mg/kg, administered intramuscularly; set-up: dose 17.5 mg/kg, route intramuscular; details: in vivo, im
[25] = Mean residence time in Rattus norvegicus Sprague-Dawley (rat) at 17.5 mg/kg, administered intramuscularly; set-up: dose 17.5 mg/kg, route intramuscular; details: in vivo, im
[26] = Elimination half life in Rattus norvegicus Sprague-Dawley (rat) at 17.5 mg/kg, administered intramuscularly; set-up: dose 17.5 mg/kg, route intramuscular; details: in vivo, im, read-out: beta t1/2 (converted)
Rattus norvegicus [27] = assay: Dose normalized AUC in Rattus norvegicus Sprague-Dawley (rat) at 17.5 mg/kg, administered intramuscularly; set-up: dose 17.5 mg/kg, route intramuscular; details: in vivo, im
[28] = Tmax in Rattus norvegicus Sprague-Dawley (rat) at 17.5 mg/kg, administered intramuscularly; set-up: dose 17.5 mg/kg, route intramuscular; details: in vivo, im
Rattus norvegicus [29] = assay: Volume of distribution in Rattus norvegicus Sprague-Dawley (rat) at 9 mg/kg, administered intramuscularly; set-up: dose 9 mg/kg, route intramuscular; details: in vivo, im
[30] = Mean residence time in Rattus norvegicus Sprague-Dawley (rat) at 9 mg/kg, administered intramuscularly; set-up: dose 9 mg/kg, route intramuscular; details: in vivo, im
[31] = Elimination half life in Rattus norvegicus Sprague-Dawley (rat) at 9 mg/kg, administered intramuscularly; set-up: dose 9 mg/kg, route intramuscular; details: in vivo, im, read-out: beta t1/2 (converted)
Rattus norvegicus [32] = assay: Dose normalized AUC in Rattus norvegicus Sprague-Dawley (rat) at 9 mg/kg, administered intramuscularly; set-up: dose 9 mg/kg, route intramuscular; details: in vivo, im
[33] = Tmax in Rattus norvegicus Sprague-Dawley (rat) at 9 mg/kg, administered intramuscularly; set-up: dose 9 mg/kg, route intramuscular; details: in vivo, im
[34] = Cmax in Rattus norvegicus Sprague-Dawley (rat) at 9 mg/kg, administered intramuscularly; set-up: dose 9 mg/kg, route intramuscular; details: in vivo, im
Rhesus monkey [35] = assay: Dose normalized AUC in Macaca mulatta (Rhesus monkey) at 50 mg/kg, po; set-up: dose 50 mg/kg, route oral; details: in vivo
[36] = Tmax in Macaca mulatta (Rhesus monkey) at 50 mg/kg, po; set-up: dose 50 mg/kg, route oral; details: in vivo
[37] = Cmax in Macaca mulatta (Rhesus monkey) at 50 mg/kg, po; set-up: dose 50 mg/kg, route oral; details: in vivo
Rattus norvegicus [38] = assay: Volume of distribution in Rattus norvegicus Sprague-Dawley (rat) at 9 mg/kg, po; set-up: dose 9 mg/kg, route oral; details: in vivo
[39] = Mean residence time in Rattus norvegicus Sprague-Dawley (rat) at 9 mg/kg, po; set-up: dose 9 mg/kg, route oral; details: in vivo
[40] = Elimination half life in Rattus norvegicus Sprague-Dawley (rat) at 9 mg/kg, po; set-up: dose 9 mg/kg, route oral; details: in vivo, read-out: beta t1/2 (converted)
Rattus norvegicus [41] = assay: Dose normalized AUC in Rattus norvegicus Sprague-Dawley (rat) at 9 mg/kg, po; set-up: dose 9 mg/kg, route oral; details: in vivo
[42] = Tmax in Rattus norvegicus Sprague-Dawley (rat) at 9 mg/kg, po; set-up: dose 9 mg/kg, route oral; details: in vivo
[43] = Cmax in Rattus norvegicus Sprague-Dawley (rat) at 9 mg/kg, po; set-up: dose 9 mg/kg, route oral; details: in vivo
[44] = Volume of distribution in Rattus norvegicus Sprague-Dawley (rat) at 2 mg/kg, iv; set-up: dose 2 mg/kg, route intravenous; details: in vivo
[45] = Mean residence time in Rattus norvegicus Sprague-Dawley (rat) at 2 mg/kg, iv; set-up: dose 2 mg/kg, route intravenous; details: in vivo
[46] = Elimination half life in Rattus norvegicus Sprague-Dawley (rat) at 2 mg/kg, iv; set-up: dose 2 mg/kg, route intravenous; details: in vivo, read-out: beta t1/2 (converted)
Rattus norvegicus [47] = assay: Volume of distribution in Rattus norvegicus Sprague-Dawley (rat) at 30 mg/kg, po; set-up: dose 30 mg/kg, route oral; details: in vivo
[48] = Elimination half life in Rattus norvegicus Sprague-Dawley (rat) at 30 mg/kg, po; set-up: dose 30 mg/kg, route oral; details: in vivo, read-out: beta t1/2 (converted)
[49] = Mean residence time in Rattus norvegicus Sprague-Dawley (rat) at 30 mg/kg, po; set-up: dose 30 mg/kg, route oral; details: in vivo
Rattus norvegicus [50] = assay: Dose normalized AUC in Rattus norvegicus Sprague-Dawley (rat) at 30 mg/kg, po; set-up: dose 30 mg/kg, route oral; details: in vivo
[51] = Tmax in Rattus norvegicus Sprague-Dawley (rat) at 30 mg/kg, po; set-up: dose 30 mg/kg, route oral; details: in vivo
Rattus norvegicus [52] = assay: Volume of distribution in Rattus norvegicus Sprague-Dawley (rat) at 17.5 mg/kg, po; set-up: dose 17.5 mg/kg, route oral; details: in vivo
[53] = Cmax in Rattus norvegicus Sprague-Dawley (rat) at 30 mg/kg, po; set-up: dose 30 mg/kg, route oral; details: in vivo
[54] = Elimination half life in Rattus norvegicus Sprague-Dawley (rat) at 17.5 mg/kg, po; set-up: dose 17.5 mg/kg, route oral; details: in vivo, read-out: beta t1/2 (converted)
[55] = Mean residence time in Rattus norvegicus Sprague-Dawley (rat) at 17.5 mg/kg, po; set-up: dose 17.5 mg/kg, route oral; details: in vivo
[56] = Tmax in Rattus norvegicus Sprague-Dawley (rat) at 17.5 mg/kg, po; set-up: dose 17.5 mg/kg, route oral; details: in vivo
[57] = Cmax in Rattus norvegicus Sprague-Dawley (rat) at 17.5 mg/kg, po; set-up: dose 17.5 mg/kg, route oral; details: in vivo
Rattus norvegicus [58] = assay: Volume of distribution in Rattus norvegicus Sprague-Dawley (rat) at 30 mg/kg, administered intramuscularly; set-up: dose 30 mg/kg, route intramuscular; details: in vivo, im
[59] = Mean residence time in Rattus norvegicus Sprague-Dawley (rat) at 30 mg/kg, administered intramuscularly; set-up: dose 30 mg/kg, route intramuscular; details: in vivo, im

Question: What does the source list for `CCO[C@@H]1O[C@@H]2O[C@]3(C)CC[C@H]4[C@H](C)CC[C@@H]([C@H]1C)[C@@]24OO3` [ALPHA-ARTEETHER]?
Answer: clearance [1]: 10 mL/min/kg; Vd [2]: 12 L/kg; MRT [3]: 19.6 h; half-life [4]: 13.2 h; AUC(0-inf) [5]: 1300 ng·h/mL; Tmax [6]: 4.8 min; Cmax [7]: 60.7 ng/mL; Vd [8]: 4.1 L/kg; MRT [9]: 2 h; AUC/dose (Rhesus monkey [10]): 628.7 ng·h/mL; half-life [11]: 1.8 h; Vd (Rhesus monkey [12]): 36.8 L/kg; MRT [13]: 9.2 h; half-life [14]: 6.7 h; AUC/dose (Rhesus monkey [15]): 285.3 ng·h/mL; Tmax [16]: 1 h; Cmax [17]: 96.7 ng/mL; MRT [18]: 3.4 h; half-life [19]: 2.7 h; half-life [20]: 11.9 h; AUC/dose (Rattus norvegicus [21]): 66.8 ng·h/mL; Tmax [22]: 0.167 h; Cmax [23]: 93.3 ng/mL; Vd (Rattus norvegicus [24]): 129.3 L/kg; MRT [25]: 23.5 h; half-life [26]: 21.7 h; AUC/dose (Rattus norvegicus [27]): 237.5 ng·h/mL; Tmax [28]: 0.5 h; Vd (Rattus norvegicus [29]): 76.8 L/kg; MRT [30]: 47.8 h; half-life [31]: 22 h; AUC/dose (Rattus norvegicus [32]): 392 ng·h/mL; Tmax [33]: 0.5 h; Cmax [34]: 52.3 ng/mL; AUC/dose (Rhesus monkey [35]): 0.4 ng·h/mL; Tmax [36]: 0.222 h; Cmax [37]: 3.9 ng/mL; Vd (Rattus norvegicus [38]): 122.2 L/kg; MRT [39]: 4.3 h; half-life [40]: 2.4 h; AUC/dose (Rattus norvegicus [41]): 27.3 ng·h/mL; Tmax [42]: 5 min; Cmax [43]: 33.4 ng/mL; Vd [44]: 3.6 L/kg; MRT [45]: 0.6 h; half-life [46]: 0.55 h; Vd (Rattus norvegicus [47]): 176.5 L/kg; half-life [48]: 1.5 h; MRT [49]: 1.8 h; AUC/dose (Rattus norvegicus [50]): 12.4 ng·h/mL; Tmax [51]: 5 min; Vd (Rattus norvegicus [52]): 244.3 L/kg; Cmax [53]: 103 ng/mL; half-life [54]: 1.7 h; MRT [55]: 1.9 h; Tmax [56]: 5 min; Cmax [57]: 37.6 ng/mL; Vd (Rattus norvegicus [58]): 253.3 L/kg; MRT [59]: 14.4 h
